The source of these data is PMC11808397, “Development of selective nanomolar cyclic peptide ligands as GBA1 enzyme stabilisers” (RSC Chemical Biology, 2025).

Positions of bridges follow the written chain, without caps; N, C: chain ends. Non-standard residues stand in square brackets, D forms with d. Residues, ends and D or L forms follow the SMILES beside them. Some results are limits rather than exact numbers.

Broadly, the IC50 is the concentration at which inhibition is half-maximal. A high value points to weaker potency.

The target in this assay is T1, GBA2 (Homo sapiens, UniProt Q9HCG7).
T1 construct: expressed in transfected cells
T1 sequence (Q9HCG7 1-927): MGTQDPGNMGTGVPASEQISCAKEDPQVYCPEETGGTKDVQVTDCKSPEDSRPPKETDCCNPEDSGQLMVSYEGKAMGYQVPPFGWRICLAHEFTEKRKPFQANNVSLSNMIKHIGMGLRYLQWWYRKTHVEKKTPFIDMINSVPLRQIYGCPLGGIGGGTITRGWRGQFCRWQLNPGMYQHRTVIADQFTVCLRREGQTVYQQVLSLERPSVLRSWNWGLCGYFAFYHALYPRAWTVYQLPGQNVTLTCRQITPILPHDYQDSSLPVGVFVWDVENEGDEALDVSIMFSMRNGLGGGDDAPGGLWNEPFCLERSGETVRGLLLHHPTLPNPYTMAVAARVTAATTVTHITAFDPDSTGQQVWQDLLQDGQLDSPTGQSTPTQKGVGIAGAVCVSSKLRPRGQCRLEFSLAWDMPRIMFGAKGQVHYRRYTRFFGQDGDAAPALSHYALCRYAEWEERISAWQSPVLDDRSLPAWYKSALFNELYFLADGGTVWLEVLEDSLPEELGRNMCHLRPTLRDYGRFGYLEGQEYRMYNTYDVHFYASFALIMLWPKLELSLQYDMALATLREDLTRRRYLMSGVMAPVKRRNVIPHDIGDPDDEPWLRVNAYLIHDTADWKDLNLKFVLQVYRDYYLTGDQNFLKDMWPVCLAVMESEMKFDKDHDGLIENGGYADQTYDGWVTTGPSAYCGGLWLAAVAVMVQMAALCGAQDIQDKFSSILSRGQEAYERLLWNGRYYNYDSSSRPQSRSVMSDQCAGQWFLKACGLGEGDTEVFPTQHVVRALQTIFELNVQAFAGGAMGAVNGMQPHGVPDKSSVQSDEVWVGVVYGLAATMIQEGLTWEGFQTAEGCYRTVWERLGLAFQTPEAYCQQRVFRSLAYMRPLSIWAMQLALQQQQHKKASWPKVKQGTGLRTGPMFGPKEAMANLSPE
Briefly: GBA2 inhibition in overexpressing HEK293T lysates. Type of assay: biochemical. The note with it: McIlvaine pH 5.8, 4-MU substrate. The method, then: Based on the pull-down validation, a set of eight cyclic peptides (L1, L2, L4, L6, D1, D8, D12 and D13) were identified, synthesized, and evaluated for their inhibitory potency against recombinant human GBA1 (rhGBA1, Cerezyme®) and their selectivity over human β-glucosidases GBA2 and GBA3. Half-maximum inhibitory concentration (IC50) values for β-glucosidases were determined in vitro by measuring hydrolysis of 4-methylumbelliferyl-β-D-glucopyranoside (4-MU-β-D-Glu) fluorogenic substrate. […]
2.5. In vitro IC50 and Ki measurements […]
nM) at 37 °C for 30 min. Following this, 100 µL of 4MU substrate was added and the samples were again incubated at 37 °C for 30 min. The reaction was quenched using excess 1 M NaOH-glycine (200 µL, pH 10.3) and 4MU fluorescence was measured using a LS55 fluorimeter (λEx 366 nm and λEm 445 […]
GBA2 and GBA3 IC50 values were determined following a similar protocol,5 using stable GBA2 or GBA3 HEK293T over-expression cell lysates and McIlvaine buffer pH 5.8 with 0.1 % BSA (w/v) and 100 mM HEPES with 0.1 % BSA, respectively. Covalent inhibitor of endogenous GBA1 (1 µM Bodipy green-cyclophellitol β-epoxide activity based probe) was added for both GBA2 and GBA3 assays, and GBA2 inhibitor N-(5-adamantane-1-yl-methoxy-pentyl)-deoxynojirimycin, AMP-DNM at 1 nM) was added for GBA3 assay. Cell lysates were pre-incubated with the aforementioned GBA1/GBA2 inhibitors for 30 min at 37 °C (12.5 µL) and subsequently incubated with the tested ligands at a range of concentrations for 30 min at 37 °C (12.5 µL), after which 100 µL 4MU-β-D-glucopyranoside was added for a final incubation of 30 min at 37 °C, quenched with 200 µL 1 M NaOH-glycine (pH 10.3) and fluorescence was measured. IC50 values were calculated using GraphPad Prism version 8.
In turn, `CC[C@H](C)[C@H](NC(=O)[C@H](CC(C)C)NC(=O)[C@H](Cc1ccc(O)cc1)NC(=O)[C@H](Cc1ccc(O)cc1)NC(=O)[C@@H]1CSCC(=O)N[C@H](Cc2ccc(O)cc2)C(=O)N[C@@H](CCCNC(=N)N)C(=O)N[C@@H](C(C)C)C(=O)N1)C(=O)N[C@H](C(=O)N[C@H](C(=O)N[C@@H](CC(C)C)C(=O)N[C@@H](CC(=O)O)C(=O)N[C@@H](CS)C(N)=O)C(C)C)[C@@H](C)O` [D1] ({CH2CO}-[dY]RVCYYLITVLDC-NH2; thioether N-4) returned an IC50 of more than 100 µM.

`CC[C@H](C)[C@@H]1NC(=O)[C@H](Cc2ccc(O)cc2)NC(=O)CSC[C@@H](C(N)=O)NC(=O)[C@H](Cc2c[nH]c3ccccc23)NC(=O)[C@H](CCC(N)=O)NC(=O)[C@H]([C@@H](C)CC)NC(=O)[C@H]([C@@H](C)CC)NC(=O)[C@@H]2CCCN2C(=O)[C@H](C(C)C)NC(=O)[C@H](Cc2ccc(O)cc2)NC(=O)[C@H](Cc2c[nH]c3ccccc23)NC(=O)[C@H](CO)NC1=O` [L6] ({CH2CO}-YISWYVPIIQWC-NH2; thioether N-12) gave an IC50 of more than 100 µM.

As for `CC[C@H](C)[C@@H]1NC(=O)[C@H](CO)NC(=O)[C@H](CS)NC(=O)CNC(=O)CNC(=O)[C@H](CC(C)C)NC(=O)[C@H](Cc2ccc(O)cc2)NC(=O)[C@H](C(C)C)NC(=O)[C@H](CC(C)C)NC(=O)[C@H](CCCNC(=N)N)NC(=O)[C@@H]2CCCN2C(=O)[C@H](Cc2ccc(O)cc2)NC(=O)CSC[C@@H](C(N)=O)NC(=O)[C@H](CCC(=O)O)NC(=O)[C@H](CC(C)C)NC(=O)[C@H](CC(C)C)NC1=O` [L1] ({CH2CO}-YPRLVYLGGCSILLEC-NH2; thioether N-16), the IC50 is more than 100 µM. The value for `CC(C)C[C@H](NC(=O)[C@@H](NC(=O)[C@H](CCCNC(=N)N)NC(=O)[C@@H]1CSCC(=O)N[C@H](Cc2ccc(O)cc2)C(=O)N[C@@H]([C@@H](C)O)C(=O)N2CCC[C@H]2C(=O)NCC(=O)N[C@@H](Cc2ccc(O)cc2)C(=O)N[C@@H](C(C)C)C(=O)N[C@@H](Cc2ccc(O)cc2)C(=O)N1)C(C)C)C(=O)N[C@@H](CCCCN)C(=O)N[C@@H](Cc1ccc(O)cc1)C(=O)N[C@@H](CS)C(N)=O` [D8] ({CH2CO}-[dY]TPGYVYCRVLKYC-NH2; thioether N-8) was more than 100 µM. The value for `CC(C)C[C@@H]1NC(=O)CNC(=O)[C@H](CC(C)C)NC(=O)[C@@H](Cc2ccc(O)cc2)NC(=O)CSC[C@@H](C(N)=O)NC(=O)[C@H](CO)NC(=O)[C@H](CCCCN)NC(=O)[C@H](CC(C)C)NC(=O)[C@H](Cc2ccccc2)NC(=O)[C@H](CCCNC(=N)N)NC(=O)[C@H](Cc2ccc(O)cc2)NC(=O)[C@H](Cc2c[nH]c3ccccc23)NC1=O` [D12] ({CH2CO}-[dY]LGLWYRFLKSC-NH2; thioether N-12) was more than 100 µM. The value for `CC(C)C[C@@H]1NC(=O)CNC(=O)[C@H](Cc2ccccc2)NC(=O)[C@H](CC(C)C)NC(=O)[C@@H]2CCCN2C(=O)[C@H](Cc2ccc(O)cc2)NC(=O)CSC[C@@H](C(=O)N2CCC[C@H]2C(=O)N[C@@H](CC(N)=O)C(=O)N[C@@H](Cc2c[nH]c3ccccc23)C(=O)N[C@@H](Cc2ccccc2)C(=O)N2CCC[C@H]2C(=O)N[C@@H](Cc2ccc(O)cc2)C(=O)N[C@@H](CCC(N)=O)C(=O)N[C@@H](CS)C(N)=O)NC(=O)[C@H](CO)NC(=O)[C@H](Cc2ccccc2)NC1=O` [L4] ({CH2CO}-YPLFGLFSCPNWFPYQC-NH2; thioether N-9) was more than 100 µM; that for `CC[C@H](C)[C@H](NC(=O)[C@H](CCCNC(=N)N)NC(=O)[C@@H]1CSCC(=O)N[C@@H](Cc2ccc(O)cc2)C(=O)N[C@@H](C)C(=O)N[C@@H](Cc2ccc(O)cc2)C(=O)N[C@@H](Cc2c[nH]c3ccccc23)C(=O)N[C@@H](Cc2c[nH]c3ccccc23)C(=O)N[C@@H](CC(C)C)C(=O)N1)C(=O)N1CCC[C@H]1C(=O)N[C@@H](Cc1c[nH]c2ccccc12)C(=O)N[C@@H](CC(C)C)C(=O)N[C@@H](CO)C(=O)N[C@H](C(N)=O)C(C)C` [L2] ({CH2CO}-YAYWWLCRIPWLSV-NH2; thioether N-7) was more than 100 µM.
